Structures can show the parent of a compound that is named as a salt.
Experiments:
[1] = system: CA1 region of mouse hippocampal organotypic tissue cultures; assay: Oxygen and glucose deprivation (OGD) in iCSF, propidium iodide uptake in mouse hippocampal organotypic cultures; format: cell-based; settings: 24 hours of recovery
[2] = system: CA1 cells; settings: given after the ischemic insult; cited from earlier work

| Compound | protective effect (damage in CA1 versus OGD-controls) ([1]; 150 μM, one hour before OGD, in iCSF during 15-minute OGD and throughout recovery) | protective effect against 15-minute-OGD in iCSF (PI-intensity in the CA1-area) ([1]; 150 μM, p<0.0001, n=18-24) | protection of CA1 cells [2] | less damage in the CA1 region compared to matched OGD-control cultures ([1]; 20 μM, pretreatment one hour before 15-minute OGD in iCSF) |
| --- | --- | --- | --- | --- |
| N[C@H](CCCP(=O)(O)O)C(=O)O [D-AP5, D-2 amino-5-phosphonopentanoic-acid] | 70% | significant | – | – |
| C[C@]12N[C@H](Cc3ccccc31)c1ccccc12 [MK-801, dizocilpine maleate] | – | – | protected CA1 cells | 90% |

Source: patent US6846641B2, “In vitro ischemia model” (AGY Therapeutics, Inc., priority 2002, dated 2005)
